Among the test systems are M14 melanoma; TK-10 renal; A498 renal; CAKI-1 renal; COLO 205 colon; SR leukemia; NCI-H460 lung; OVCAR-8 ovarian; CCRF-CEM leukemia; SF-268 CNS.
What all share (experiment): DTP human tumour cell line panel, 48 h

The term TGI denotes the concentration at which net growth stops. Read a high TGI as lower sensitivity of the cells. Broadly, the GI50 is the concentration giving 50% growth inhibition.

The structures appear in SMILES notation. “And” between values parts separate entries of the source, which are not always exact repeats. Equal values may be shown once.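 A five-concentration, 48-hour dose response in 96-well plates underlies each endpoint, interpolated linearly between surrounding concentrations. The concentration for 50% growth inhibition is given as GI50. TGI: total growth inhibition.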 A value given as a limit tells only on which side of the number the result lay.

Turning to `O=C(O)C1CC(O)CN1` (stereo not given), the total growth inhibition concentration (TGI) in the assay on M14 melanoma, in the assay with TK-10 renal, with A498 renal, in the assay with CAKI-1 renal, in the assay on COLO 205 colon and in the assay with SR leukemia was greater than 100 µM throughout. In addition, the TGI with NCI-H460 lung, in the assay on OVCAR-8 ovarian, with CCRF-CEM leukemia and with SF-268 CNS was greater than 100 µM in each case.

In the case of `Cc1cn(-c2cc(NC(=O)c3ccc(C)c(Nc4nccc(-c5cccnc5)n4)c3)cc(C(F)(F)F)c2)cn1`, the GI50 in the assay on M14 melanoma was 1.66 µM and 1.45 µM; in the assay with TK-10 renal, 5.26 µM and 4.07 µM; in the assay with A498 renal it was > 10 µM and 4.09 µM; in the assay with CAKI-1 renal, > 10 µM and 7.37 µM; in the assay on COLO 205 colon, 1.58 µM and 1.23 µM; in the assay on SR leukemia it was 3.06 µM and 2.67 µM. In addition, the GI50 in the assay with NCI-H460 lung was 3.31 µM and 2.33 µM; in the assay on OVCAR-8 ovarian, 4.43 µM and 4.29 µM; with CCRF-CEM leukemia, > 10 µM and 1.25 µM; in the assay on SF-268 CNS it was 5.78 µM and 3.45 µM. Besides, the TGI with M14 melanoma is 5.91 µM and 4.87 µM; with TK-10 renal it was > 10 µM and 9.38 µM; in the assay on A498 renal, > 10 µM and 12.1 µM; in the assay on CAKI-1 renal, > 10 µM and 14.3 µM; in the assay on COLO 205 colon, 7.11 µM and 5.52 µM; with SR leukemia, > 10 µM and 26.9 µM. In addition, the TGI is > 10 µM and 10.7 µM in the assay on NCI-H460 lung; > 10 µM and 24.8 µM with OVCAR-8 ovarian; greater than 32.3 µM in the assay on CCRF-CEM leukemia; > 10 µM and 15.2 µM with SF-268 CNS.

`CCN(CC)c1ccc(N=Nc2ccc(-c3nc4ccc[n+](C)c4o3)cc2)cc1`: the TGI amounted to 24.8 µM in the assay with M14 melanoma; 24.7 µM in the assay with TK-10 renal; 35.9 µM with A498 renal; 26.3 µM in the assay with CAKI-1 renal; 5.41 µM in the assay with COLO 205 colon; 20.9 µM with SR leukemia. For the same molecule, the TGI amounted to 29.2 µM in the assay on NCI-H460 lung, 18.8 µM in the assay with OVCAR-8 ovarian, 19.8 µM with CCRF-CEM leukemia and 31.4 µM with SF-268 CNS.

For the molecule `N#CC1CC2(CCN1C(=O)c1ccccc1)OCCO2` (stereo not given), the TGI in the assay on M14 melanoma, in the assay with TK-10 renal, in the assay on A498 renal, in the assay on CAKI-1 renal, in the assay on COLO 205 colon and in the assay on SR leukemia was greater than 100 µM throughout. For the same molecule, the TGI in the assay on NCI-H460 lung, with OVCAR-8 ovarian, with CCRF-CEM leukemia and in the assay with SF-268 CNS was greater than 100 µM each time.

For `Cc1ccc(O)c(NC(=O)c2ccc(CNc3ccnc(C(F)(F)F)c3)cc2)c1`, the GI50 in the assay with M14 melanoma was 5 µM; in the assay with TK-10 renal, 10.8 µM; in the assay on A498 renal it was 14.3 µM; in the assay on CAKI-1 renal, 6.33 µM; with COLO 205 colon, 5.57 µM; with SR leukemia, 5.1 µM. For the same molecule, the GI50 was 3.7 µM in the assay with NCI-H460 lung, 15.9 µM with OVCAR-8 ovarian, 0.496 µM in the assay with CCRF-CEM leukemia and 10.8 µM with SF-268 CNS. Further, the TGI amounted to 24.2 µM with M14 melanoma; 40.1 µM with TK-10 renal; 37.6 µM in the assay on A498 renal; 40.6 µM in the assay on CAKI-1 renal; 20.1 µM in the assay on COLO 205 colon; 30 µM in the assay with SR leukemia. Besides, the TGI was 21.9 µM with NCI-H460 lung, greater than 100 µM in the assay on OVCAR-8 ovarian, 17.7 µM in the assay on CCRF-CEM leukemia and 38 µM with SF-268 CNS.

`CN(C)c1ccc(/C=C/c2cc[n+](C)c(/C=C/c3ccc(N(C)C)cc3)c2)cc1`: the GI50 with M14 melanoma is 0.376 µM; in the assay on TK-10 renal, 0.374 µM; with A498 renal, 0.194 µM; with CAKI-1 renal, 1.42 µM; in the assay with COLO 205 colon it was 0.176 µM; in the assay on SR leukemia, 0.309 µM. Besides, the GI50 was 0.343 µM in the assay with NCI-H460 lung, 0.294 µM with OVCAR-8 ovarian, 0.248 µM in the assay on CCRF-CEM leukemia and 0.399 µM in the assay with SF-268 CNS. The TGI in the assay with M14 melanoma came out at 1.65 µM; in the assay on TK-10 renal, 2.86 µM; with A498 renal it was 1.81 µM; with CAKI-1 renal, 7.4 µM; in the assay with COLO 205 colon, 0.356 µM; in the assay on SR leukemia, 2.45 µM. Further, the TGI with NCI-H460 lung was determined as 1.72 µM; with OVCAR-8 ovarian, 1.26 µM; in the assay on CCRF-CEM leukemia it was 3.78 µM; with SF-268 CNS, 6.26 µM.

For `CCCCCCCc1cc2c3c(nc4ccccc42)C(=O)c2cccnc2-c3n1`, the GI50 in the assay with M14 melanoma was 2.5 µM; with TK-10 renal it was 2.4 µM; with A498 renal it was 6.46 µM; in the assay with CAKI-1 renal, 4.6 µM; in the assay on COLO 205 colon, 5.05 µM; in the assay with SR leukemia, 3.02 µM. Besides, the GI50 was 1.05 µM in the assay with NCI-H460 lung, 5.41 µM in the assay on OVCAR-8 ovarian, 1.62 µM with CCRF-CEM leukemia and 5.48 µM with SF-268 CNS. The TGI with M14 melanoma was found to be 6.9 µM; with TK-10 renal, 4.41 µM; in the assay with A498 renal, 17.5 µM; in the assay with CAKI-1 renal, 9.51 µM; in the assay with COLO 205 colon, 9.59 µM; in the assay with SR leukemia, 10.7 µM. Also, the TGI in the assay on NCI-H460 lung turned out to be 3.1 µM; with OVCAR-8 ovarian, 16.6 µM; in the assay with CCRF-CEM leukemia it was 7.66 µM; in the assay on SF-268 CNS, 11.8 µM.

With `CCOC(=O)c1[nH]c(COC(C)=O)c2c1CCCCCCCCCC2`, the TGI with M14 melanoma, in the assay with TK-10 renal, in the assay on A498 renal, with CAKI-1 renal, in the assay with COLO 205 colon and with SR leukemia was greater than 100 µM throughout. The TGI in the assay with NCI-H460 lung, with OVCAR-8 ovarian, in the assay with CCRF-CEM leukemia and in the assay on SF-268 CNS was greater than 100 µM in each case.

On to `C#CCOc1cccc(Nc2ncnc3cc(NC(=O)CCl)ccc23)c1`, for which the GI50 in the assay with M14 melanoma was 5.11 µM; with TK-10 renal, 5.22 µM; in the assay with A498 renal it was 12.7 µM; with CAKI-1 renal it was 3.51 µM; in the assay with COLO 205 colon, 5.04 µM; in the assay with SR leukemia, 0.49 µM. In addition, the GI50 was 3.64 µM with NCI-H460 lung, 3.32 µM with OVCAR-8 ovarian, 1.55 µM in the assay with CCRF-CEM leukemia and 4.32 µM in the assay with SF-268 CNS. Moreover, the TGI amounted to 20.4 µM in the assay on M14 melanoma; 19.3 µM with TK-10 renal; 25.9 µM in the assay on A498 renal; 15 µM with CAKI-1 renal; 19.8 µM in the assay on COLO 205 colon; 5.59 µM in the assay on SR leukemia. The TGI in the assay on NCI-H460 lung is 12.1 µM; with OVCAR-8 ovarian it was 11 µM; with CCRF-CEM leukemia, 8.85 µM; with SF-268 CNS it was 19.7 µM.

For the origin of these results see PubChem BioAssay (NCI).
